# Legend:
# [1] = test system: H3.3-FKBP12^F36V HeLa cells; assay: Quantitative acetylproteomics of H3.3-FKBP12^F36V HeLa cells; type: cell-based, Human
# Description: Sample preparation: Frozen cell pellets were thawed on ice and lysed in a buffer containing 50 mM Tris-HCl (pH 7.5), 150 mM NaCl, 1 mM EDTA, 1% NP-40, 0.1% sodium deoxycholate, 5 mM sodium butyrate, 10 mM nicotinamide and 1X Pierce™ protease inhibitor cocktail. Cells were sonicated to ensure complete lysis, mixed with 5 M NaCl at a ratio of 1:10 with sample volume and incubated on ice for 15 min to release chromatin-bound proteins. Cell lysates were then sonicated again to shear genomic DNA. Cellular debris was cleared by centrifugation at 16,000 g for 20 min at 4° C., protein concentration was determined using a Pierce™ BCA assay and ˜10 mg of protein was aliquoted for acetyl-proteomic analysis. Proteins were denatured with 8 M urea in 50 mM HEPES, reduced with 5 mM dithiothreitol for 30 min at 56° C., then alkylated with 5 mM iodoacetamide for 20 min in the dark at RT. Following alkylation, proteins were precipitated using chloroform-methanol as previously described, and protein pellets were dried at 56° C. for 15 min. Proteins pellets were resuspended in 1 M urea in 50 mM HEPES and digested in a two-step process with LysC and trypsin as previously described. Digested peptides were desalted using Phenomenex Strata-X polymeric reverse phase extraction cartridges using the following protocol. Cartridges were conditioned with 1 mL 100% acetonitrile, 1 mL 80% acetonitrile/0.5% AA, and 1 mL 0.1% TFA. Peptides were then loaded on to the cartridge at a reduced flow rate and desalted with 5 mL 0.1% TFA followed by 1 mL 0.5% AA. Desalted peptides were eluted using 1 mL 40% acetonitrile/0.5% AA followed by 1 mL 80% acetonitrile/0.5% AA and lyophilized. Digested peptides were quantified using the Pierce™ Quantitative Colorimetric Peptide Assay and […] was aliquoted from each for total protein analysis while the remaining peptide was lyophilized and retained for acetyl-peptide enrichment.
# Acetyl-peptide Enrichment: Acetyl-peptides were enriched using the PTMScan® Acetyl-Lysine Motif [Ac-K] Kit according to manufacturer instructions. […]
# [2] = test system: T1, FKBP12^F36V-RelA (Homo sapiens, F37V); assay: Immunoblot analysis of FKBP12^F36V-RelA acetylation in RelA-/- HeLa cells; type: cell-based
# T1 construct: expressed in transfected cells
# T1 sequence (P62942 2-108 F37V limits assumed): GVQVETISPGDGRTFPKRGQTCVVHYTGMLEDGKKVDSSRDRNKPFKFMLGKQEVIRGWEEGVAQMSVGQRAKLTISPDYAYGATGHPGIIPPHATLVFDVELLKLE
# T1 sequence (Q09472 2-2414 limits assumed, stated change not applied, further chain): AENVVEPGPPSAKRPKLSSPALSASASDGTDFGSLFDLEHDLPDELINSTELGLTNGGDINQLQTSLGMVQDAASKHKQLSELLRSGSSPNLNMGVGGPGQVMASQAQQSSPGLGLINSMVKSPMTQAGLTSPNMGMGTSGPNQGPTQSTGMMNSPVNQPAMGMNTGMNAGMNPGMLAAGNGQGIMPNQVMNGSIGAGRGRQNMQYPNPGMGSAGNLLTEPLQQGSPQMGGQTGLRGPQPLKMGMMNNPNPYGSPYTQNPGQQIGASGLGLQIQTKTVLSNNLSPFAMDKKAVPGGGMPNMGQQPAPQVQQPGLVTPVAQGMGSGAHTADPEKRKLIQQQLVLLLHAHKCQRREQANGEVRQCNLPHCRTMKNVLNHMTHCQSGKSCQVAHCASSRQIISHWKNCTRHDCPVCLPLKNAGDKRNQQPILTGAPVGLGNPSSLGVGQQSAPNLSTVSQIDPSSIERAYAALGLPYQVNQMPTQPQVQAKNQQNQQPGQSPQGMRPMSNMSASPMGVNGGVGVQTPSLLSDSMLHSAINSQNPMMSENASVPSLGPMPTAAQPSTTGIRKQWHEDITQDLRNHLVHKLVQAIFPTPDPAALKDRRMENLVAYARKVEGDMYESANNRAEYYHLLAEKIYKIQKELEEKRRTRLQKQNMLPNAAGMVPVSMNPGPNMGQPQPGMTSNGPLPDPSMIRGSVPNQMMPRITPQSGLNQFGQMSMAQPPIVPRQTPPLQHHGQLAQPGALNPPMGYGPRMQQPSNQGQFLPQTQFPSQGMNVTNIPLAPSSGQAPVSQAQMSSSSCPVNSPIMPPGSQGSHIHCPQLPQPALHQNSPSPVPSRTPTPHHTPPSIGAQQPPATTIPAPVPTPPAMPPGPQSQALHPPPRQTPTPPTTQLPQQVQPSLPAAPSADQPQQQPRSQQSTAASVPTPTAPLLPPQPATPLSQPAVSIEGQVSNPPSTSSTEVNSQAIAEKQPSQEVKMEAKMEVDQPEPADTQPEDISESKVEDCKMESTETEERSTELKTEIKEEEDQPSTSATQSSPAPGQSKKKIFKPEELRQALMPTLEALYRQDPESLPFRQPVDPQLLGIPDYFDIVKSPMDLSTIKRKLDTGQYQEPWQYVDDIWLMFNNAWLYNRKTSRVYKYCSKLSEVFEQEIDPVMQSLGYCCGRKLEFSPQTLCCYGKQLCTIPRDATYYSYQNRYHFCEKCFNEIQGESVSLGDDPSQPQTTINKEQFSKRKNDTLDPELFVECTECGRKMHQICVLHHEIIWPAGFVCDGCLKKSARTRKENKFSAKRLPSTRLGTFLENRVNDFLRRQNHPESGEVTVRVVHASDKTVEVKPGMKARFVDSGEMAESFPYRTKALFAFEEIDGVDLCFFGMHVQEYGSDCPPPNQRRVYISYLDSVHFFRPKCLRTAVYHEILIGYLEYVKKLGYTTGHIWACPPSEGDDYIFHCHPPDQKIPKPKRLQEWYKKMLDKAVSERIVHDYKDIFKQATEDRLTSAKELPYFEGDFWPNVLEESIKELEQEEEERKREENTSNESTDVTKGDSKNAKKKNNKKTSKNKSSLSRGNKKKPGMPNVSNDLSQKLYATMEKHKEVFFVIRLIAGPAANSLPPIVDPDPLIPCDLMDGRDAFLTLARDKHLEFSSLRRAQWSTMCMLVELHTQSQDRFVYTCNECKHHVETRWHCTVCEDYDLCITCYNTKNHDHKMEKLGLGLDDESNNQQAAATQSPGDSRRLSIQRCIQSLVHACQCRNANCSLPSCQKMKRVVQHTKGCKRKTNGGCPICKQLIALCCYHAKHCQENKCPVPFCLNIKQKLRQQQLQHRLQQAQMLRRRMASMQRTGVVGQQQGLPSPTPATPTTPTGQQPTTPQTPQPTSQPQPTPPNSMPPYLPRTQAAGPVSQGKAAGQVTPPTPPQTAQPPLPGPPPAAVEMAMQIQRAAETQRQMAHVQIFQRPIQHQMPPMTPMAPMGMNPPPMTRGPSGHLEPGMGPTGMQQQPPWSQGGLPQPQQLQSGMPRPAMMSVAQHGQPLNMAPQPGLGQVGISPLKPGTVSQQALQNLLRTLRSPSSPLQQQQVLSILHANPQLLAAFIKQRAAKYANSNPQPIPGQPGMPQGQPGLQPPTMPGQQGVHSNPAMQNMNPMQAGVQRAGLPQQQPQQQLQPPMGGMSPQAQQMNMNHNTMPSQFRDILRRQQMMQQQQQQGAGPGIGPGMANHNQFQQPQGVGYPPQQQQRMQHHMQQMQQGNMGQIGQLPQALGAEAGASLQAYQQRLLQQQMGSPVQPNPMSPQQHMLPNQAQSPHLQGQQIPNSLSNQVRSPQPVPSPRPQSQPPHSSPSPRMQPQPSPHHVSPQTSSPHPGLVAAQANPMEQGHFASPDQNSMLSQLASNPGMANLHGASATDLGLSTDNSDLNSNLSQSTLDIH
# Description: Lentivirus Production and Transduction: Lentiviral production was performed using HEK293T cells, which were co-transfected with pMD2.G (Addgene, #12259), psPAX2 (Addgene, #12260), and AceTAG lentiviral plasmids using PEI (Polysciences Inc). Viral particles were collected 72 h after transfection and filtered through a […] membrane. A range of dilutions of the lentivirus in DMEM complete and 10 μg/mL polybrene were added to HeLa, H1299, or HeLa RelA KO cell lines. Transduced cells were selected with 1 μg/mL or 2 μg/mL puromycin.
# (§1) Immunoblotting: Cells were harvested in cold DPBS by scraping and washed with cold DPBS twice. Cell pellets were resuspended in DPBS supplemented with 5 mM sodium butyrate, 20 mM Nicotinamide, and 1X Halt Protease Inhibitor Cocktail and lysed by sonication (15 ms on, 40 ms off, 15% amplitude, 1s total on x 3). Protein concentration was determined using DC Protein Assay (Bio-Rad) and absorbance read using a CLARIOstar plate reader following manufacturer's instructions. Samples with equal protein content were boiled in 4X SDS gel loading buffer for 10 min. Proteins were separated by 10%, 12.5%, or 15% SDS-polyacrylamide gel electrophoresis and transferred to PVDF membranes using Trans-Blot Turbo RTA Mini […] LF PVDF Transfer Kit (Bio-Rad). Membranes were incubated for 1 h at room temperature with blocking buffer, followed by incubating overnight at 4° C. with primary antibodies. After washing in TBST, the secondary antibodies were incubated with the membranes at room temperature for 1 h. The membranes were washed with TBST for three times and visualized on a Bio-Rad ChemiDoc MP Imaging System with Clarity Max Western ECL substrate (Bio-Rad) or SuperSignal West Femto Chemiluminescent substrate proprietary luminol and peroxide solution kit (Thermo Scientific Pierce).
# TP53 target genes [3] = assay: RNA-seq analysis of H1299 wt cells; type: cell-based, Human; settings: 3 μM AceTAG-1, FIG. 7F
# TP53 target genes [4] = assay: RNA-seq analysis of FKBP12^F36V-p53 H1299 cells; type: cell-based, Human
# p21 = assay: Immunoblot of p21 expression in p53 H1299 cells without the FKBP12^F36V tag; type: cell-based, Human; settings: indicated doses, 8 hr, FIG. 7D
# Description: as §1
# [5] = 3 μM AceTAG-1 compared to vehicle, FIG. 7F
structure (smiles),measurement,setting,value
"CC[C@H](C(=O)N1CCCC[C@H]1C(=O)O[C@H](CCc1ccc(OC)c(OC)c1)c1cccc(OCC(=O)NCCOCCOCCC(=O)NCCOc2ccc(CCc3nc4cc(-c5c(C)noc5C)ccc4n3CCN3CCOCC3)cc2)c1)c1cc(OC)c(OC)c(OC)c1 [AceTAG-1, (R)-3-(3,4-dimethoxyphenyl)-1-(3-((15-(4-(2-(5-(3,5-dimethylisoxazol-4-yl)-1-(2-morpholinoethyl)-1H-benzo[d]imidazol-2-yl)ethyl)phenoxy)-2,12-dioxo-6,9-dioxa-3,13-diazapentadecyl)oxy)phenyl)propyl (S)-1-((S)-2-(3,4,5-trimethoxyphenyl)butanoyl)piperidine-2-carboxylate]",changes in acetylation of detected proteins relative to DMSO,"[1]; 600 nM AceTAG, FIG. 5D",no substantial changes in acetylation of any detected protein
same,"endogenous histone lysine acetylation, including H3.3","[1]; AceTAG treatment, FIG. 9C",no substantial changes
same,RelA acetylation at higher AceTAG-1 concentrations,[2]; FIG. 6A,apparent acetylation autoinhibition
same,RelA acetylation at neighboring K314/315,[2]; FIG. 9D,minimal effects
same,RelA acetylation at K310,"[2]; indicated doses, 2 hr, FIG. 6A",dose-dependent acetylation
same,changes of TP53 target genes in H1299 wt cells,TP53 target genes [3],minimal changes
same,"increases in apoptotic (Bax, Puma), metabolic (GLS2) or autoregulatory (Mdm2) targets","TP53 target genes [4]; 3 μM AceTAG-1, RNA-seq",little to no increases
same,upregulation of CDKNIA transcript,TP53 target genes [4]; [5],~2.8 fold
same,upregulation of GDF15 transcript,TP53 target genes [4]; [5],~3 fold
same,upregulation of SLC7A11 transcript,TP53 target genes [4]; [5],~1.7 fold
same,upregulation of TP5313 transcript,TP53 target genes [4]; [5],~1.6 fold
same,p21 induction in H1299 cells expressing p53 without the FKBP12^F36V tag,p21,not observed
